From US20090104211A1, “Treatment of atherosclerosis” (AFFIRIS Forschungs-und Entwicklungs GmbH, priority 2004, published 2009) come the findings set out here.

This experiment deals with anti-CETP monoclonal antibody (detects the CETP-derived amino acid sequence FGFPEHLLVDFLQSLS). Nature of the experiment: ELISA screening of peptide libraries with anti-CETP monoclonal antibody for mimotope identification. It counts as binding. Conditions: 7 mer / 8 mer peptide libraries. From the text: The problem of the anti-CETP vaccine approach discussed above is that the vaccine formulation comprises a self peptide and therefore must break natural tolerance against self antigens. The invention describes a CETP mimotope that can be used for vaccination: The mimotope shall induce the production of antibodies against CETP. […] Thus, the induction of an anti-CETP antibody response is greatly facilitated. The mimotope is identified with a monoclonal antibody (mAb) and (commercially available) peptide libraries (e.g. according to 16). An anti-CETP monoclonal antibody is used that neutralizes CETP activity (17). This mAb detects a sequence within the C-terminal 26 amino acids of CETP necessary for neutral lipid transfer activity (18).
One monoclonal antibody used for the mimotope identification detects the CETP-derived amino acid sequence […] (=original epitope).
The mimotope has a preferred length of 5 to 15 amino acids. Two different libraries are used in ELISA assays to define mimotope sequences.
Library 1: This 7 mer library contains peptides with the following sequences (amino acid positions 1 to 7):
Library 2: This 8 mer library contains peptides with the following sequences (amino acid positions 1 to 8):
Position 1: all natural aa except of C (19 possibilities) Position 2: all natural aa except of C (19 possibilities) Position 3: all natural aa except of C (19 possibilities) Position 4: all natural aa except of C (19 possibilities) Position 5: all natural aa except of C (19 possibilities) Position 6: all natural aa except of C (19 possibilities) Position 7: all natural aa except of C (19 possibilities) Position 8: all natural aa except of C (19 possibilities)
Background: In an ELISA, binding on a coated surface is turned into a signal by an enzyme label.
As to ALKNKLP [7 mer peptide, CETP mimotope], the “mimotope detected by monoclonal antibody” value is “detected by a monoclonal antibody”. With ALKDKVP [7 mer peptide, CETP mimotope] the entry was “detected by a monoclonal antibody”; with ALKHKVP [7 mer peptide, CETP mimotope], “detected by a monoclonal antibody”.

Take ALKYKLP [7 mer peptide, CETP mimotope]: the “mimotope detected by monoclonal antibody” value was “detected by a monoclonal antibody”. For AVKGKLP [7 mer peptide, CETP mimotope] the value was “detected by a monoclonal antibody”; for ALKSKIP [7 mer peptide, CETP mimotope], “detected by a monoclonal antibody”; for ALKGKIP [7 mer peptide, CETP mimotope], “detected by a monoclonal antibody”. For AAQKDKVP [8 mer peptide, CETP mimotope] the value was “detected by a monoclonal antibody”; for ALKDKLP [7 mer peptide, CETP mimotope], “detected by a monoclonal antibody”. For ALKNKIP [7 mer peptide, CETP mimotope] the value was “detected by a monoclonal antibody”.

On to ALKHKIP [7 mer peptide, CETP mimotope], for which the “mimotope detected by monoclonal antibody” value is on record as “detected by a monoclonal antibody”.
